Test results reported in patent US10292992B2, “Selective high-affinity polydentate ligands and methods of making such” (LAWRENCE LIVERMORE NATIONAL SECURITY, LLC, priority 2008, dated 2019).
“Also recorded” adds a separate entry of the source. Like-named read-outs stand apart in the source and are kept apart here. Each block holds one compound with its values, some of them ahead of it.

What was measured:
[1] = Stability in human plasma by cellulose acetate electrophoresis; assay type: in vitro ADME; conditions: human plasma at 37° C. for 24 hrs; one preliminary CAE experiment
Description: Two forms of the free amine SHAL, (DvLPBaPPP)2LLA, and the hexa-arginine analog, (DvLPBaPPP)2LArg6AcLLA, were synthesized in multi-milligram amounts and purified by high performance liquid chromatography (HPLC). A biotin was attached to the ε-amino group of the terminal amine (A) on both (DvLPBaPPP)2LLA and (DvLPBaPPP)2LArg6AcLLA to produce biotinylated forms for use in cell and protein binding experiments. 1,4,7,10-tetraazacyclododecane-1,4,7,10-tetraacetic acid (DOTA) was attached to both (DvLPBaPPP)2LLA and (DvLPBaPPP)2LArg6AcLLA at the same site to enable the SHALs to be labeled with ^111In. The DOTA SHAL (DvLPBaPPP)2LLDo (FIG. 25A) and the hexa-arginine SHAL analog (DvLPBaPPP)2LArg6AcLLDo (FIG. 25B) were labeled with ^111In at high efficiency (>90%) with specific activities ranging from 70-85 μCi/μg SHAL. […] D-isomers of arginine incorporated during the synthesis of the hexa-arginine sequence in (DvLPBaPPP)2LArg6AcLLDo were used to minimize the proteolytic susceptibility of the peptide.

[2] = General safety study in healthy mice; assay type: in vivo; conditions: 4 weeks; for adverse effects / toxicity: up to 2000 times the efficacy dose i.p.
Procedure: Each of 3 groups of 7 healthy Balb/c mice were given PBS, 20 or 200 μg of DOTA-chelated SHAL i.p., that is, 200 or 2,000 times the SHAL efficacy dose. Immediately prior to intervention, the mice were observed, weighed and blood counts (red, white and platelets) obtained, then the mice were observed daily, weighed 3 times each week and blood counts measured weekly for 4 weeks after intervention.

Raji xenografts = assay: Efficacy in mice with Raji xenografts; assay type: in vivo, athymic Balb/c nu/nu mice
Description: (§1) Seven- to nine-week old female, athymic Balb/c nu/nu mice (Harlan Sprague Dawley, Inc., Frederick, Md.) were maintained according to University of California animal care guidelines under pathogen-free conditions and on a normal ad libitum diet. Raji or Jurkat's cells harvested in log phase and having >95% viability were implanted (6×10^6 cells) subcutaneously in the lower abdomen 3-4 days after the mice were irradiated (400 cGy) to suppress xenograft rejection. When xenografts reached 20-500 mm3 by caliper measurement, the mice were sorted by xenograft volume into 4 groups: SHAL-treated mice with Raji xenografts, SHAL-treated mice with Jurkat's xenografts, untreated mice with Raji xenografts or untreated mice with Jurkat's xenografts. Each mouse was injected with 100 μl of PBS or 100 ng DOTA-chelated tridentate SHAL i.p. on days 0, 7 and 14. Xenograft volume and survival were monitored for ≥84 days. The mice were also weighed 2-3 times each week for 4 weeks then weekly. Blood counts were measured prior to each SHAL or PBS dose and weekly for 4 weeks after the final dose using a Z Series Coulter Counter (Beckman Coulter Inc., Hialeah, Fla.) and a phase contrast microscope (Zeiss, Jena, Germany).
(§2) Xenograft volumes were calculated by the formula for hemiellipsoids (DeNardo et al. (1997) Clin. Cancer Res. 3: 71-79). […] If a xenograft became >2000 mm3, the mouse was euthanized in accordance with University of California animal care guidelines and scored as a disease-related death.
(§3) Initial analysis compared response rates by exact tests and survival times by log-rank tests for untreated Raji and Jurkat's mice and found no significant differences, so these groups were pooled for subsequent analysis. Response rates for treated Raji, treated Jurkat's and untreated mice were compared by x^2 and exact tests. Survival times were censored at 84 days for mice who had not died or been euthanized because of tumor growth before that time. Times were summarized descriptively by Kaplan-Meier curves and median survival and 95% confidence limits were obtained by the product-limit estimate. The two treated groups were compared to the untreated using a log-rank test for homogeneity across groups, followed by a proportional hazards model to estimate the effect of treatment compared to no treatment. Analyses were carried out using SAS/SAT® software (SAS Institute, Inc. SAS/STAT Version 9.0. 2004. Cary, N.C.: SAS Institute). All tests were two-sided at level 0.05.

Jurkat's xenografts = assay: Efficacy in mice with Jurkat's xenografts; assay type: in vivo, athymic Balb/c nu/nu mice
Description: as §1, §2, §3

[3] = system: Raji human HLA-DR10 expressing lymphoma cells; assay: Cytotoxicity assay (trypan blue) in Raji cell culture; assay type: cell-based
Procedure: Raji cells harvested in log growth phase were centrifuged, resuspended in fresh media and counted in 10% trypan-blue dye to determine initial and subsequent viability, as previously described (West et al. (2006) Cancer Biother. Radiopharm., 21: 645-654). When untreated, cells continued to multiply and nonviable cells, initially <5% of total cells, remained so over the course of the assays. To titrate cytotoxic activity, biotinylated tridentate SHAL at concentrations ranging between 0 and 7 nM (pm/ml media) was incubated with 0.5×10^6 cells/ml at 37° C. in a 5% CO2, humidified atmosphere (NAPCO, Portland, Oreg.). After 1, 2 and 3 days, cells were resuspended in trypan blue dye and counted in a hemocytometer. The fractional viability and absolute number of viable and non-viable cells/ml were determined.

[4] = 100 ng DOTA-chelated tridentate SHAL i.p. days 0, 7 and 14
[5] = 100 ng SHAL i.p. once weekly for 3 consecutive weeks

degradation in human plasma [1]: no evidence of degradation
Structure (SMILES): CC(=O)NC(CCCNC(=N)N)C(=O)NC(CCCNC(=N)N)C(=O)NC(CCCNC(=N)N)C(=O)NC(CCCNC(=N)N)C(=O)NC(CCCNC(=N)N)C(=O)NC(CCCNC(=N)N)C(=O)NCCCCC(NC(=O)C(CCCCNC(=O)COCCOCCNC(=O)COCCOCCNC(=O)COCCOCCNC(=O)C(CCCCNC(=O)COCCOCCNC(=O)c1ccc(NC(=O)C(CCCNC(=N)N)NC(=O)c2ccccc2)cc1)NC(=O)C(NS(=O)(=O)c1ccc(N=Nc2ccc(N(C)C)cc2)cc1)C(C)C)NC(=O)COCCOCCNC(=O)COCCOCCNC(=O)COCCOCCNC(=O)C(CCCCNC(=O)COCCOCCNC(=O)c1ccc(NC(=O)C(CCCNC(=N)N)NC(=O)c2ccccc2)cc1)NC(=O)C(NS(=O)(=O)c1ccc(N=Nc2ccc(N(C)C)cc2)cc1)C(C)C)C(=O)NC(CCCCNC(=O)CN1CCN(CC(=O)O)CCN(CC(=O)O)CCN(CC(=O)O)CC1)C(=O)O (centres unmarked) [(DvLPBaPPP)2LArg6AcLLDo]

Structure (SMILES): CC(C)C(NS(=O)(=O)c1ccc(N=Nc2ccc(N(C)C)cc2)cc1)C(=O)NCCOCCOCC(=O)NC(CCCCNC(=O)C(CCCCNC(=O)CC(=O)Nc1ccccc1Oc1ncc(C(F)(F)F)cc1Cl)NC(=O)COCCOCCNC(=O)c1ccc(N2CCN(Cc3ccc(Cl)cc3)CC2)c([N+](=O)[O-])c1)C(=O)NCCOCCOCC(=O)NC(CCCCNC(=O)CN1CCN(CC(=O)O)CCN(CC(=O)O)CCN(CC(=O)O)CC1)C(=O)O (centres unmarked) [tridentate SHAL]
body weight ([2]; 20 or 200 μg DOTA-chelated SHAL i.p. (200 or 2,000 times efficacy dose)): gained weight
blood counts ([2]; 20 or 200 μg DOTA-chelated SHAL i.p.): stable blood counts
adverse effects / toxicity [2]: no evidence for toxicity; also recorded: did not exhibit signs of adverse events
adverse effects / toxicity ([2]; listed as SHAL): no adverse effects
ORR (overall response rate) (Raji xenografts; [4]): 77%
Cure (Raji xenografts; 100 ng DOTA-chelated tridentate SHAL i.p. days 0, 7 and 14, censored at 84 days): 69%
overall survival (FIG. 31) (Raji xenografts; [5]): longest survival
median survival time (Raji xenografts; 100 ng SHAL i.p. weekly x3, censored at 84 days): not estimable
xenograft response in one mouse (FIG. 30) (Raji xenografts; by three weeks after the initial 100 ng dose i.p.): completely regressed
persistence of cures (Raji xenografts; cures at 84 days): persisted over a 210-day observation time
reduction in hazard of death (Raji xenografts; treated Raji mice compared to untreated and treated Jurkat's mice, proportional hazards model): 85%
time at which regression began after initial SHAL treatment (Raji xenografts; treated Raji xenografts): ~7 days
time to complete remission after initial SHAL treatment (Raji xenografts; treated Raji xenografts): ~30 days
Cure (Jurkat's xenografts; [4]): 0%
ORR (overall response rate) (Jurkat's xenografts; [4]): 0%
longest survival (FIG. 31) (Jurkat's xenografts; [5]): ≤ 56 days
effect of SHAL treatment on Jurkat's xenografts (Jurkat's xenografts; mouse, in vivo): not affected
median survival time (Jurkat's xenografts; treated mice with Jurkat's xenografts): 21 days
threshold concentration for cytotoxic activity ([3]; Raji cell culture): 0.7 nM
IC50 ([3]; Raji cell culture, read-out: IC50 concentration for cytotoxic activity): 2.5 nM
threshold SHAL cytotoxic concentration ([3]; biotinylated tridentate SHAL, determined at 2 days): 0.7 nM (pm/ml media)
IC50 ([3]; biotinylated tridentate SHAL, determined at 2 days, read-out: IC50 SHAL cytotoxic concentration): 2.5 nM
